# Experimental data reported in patent US20070232575A1, “Treatment of Pulmonary Artery Hypertension with Dhea, Dheas, Dhea Analogs, or Dhea Derivatives” (priority 2004, published 2007).
# Entries after “also recorded” stand apart in the source; their conditions may differ.
# How the values were obtained:
# BKCa [1] = test: Immunoblot of BKCa in arterial pulmonary extracts; type: in vivo, rat; details: oral DHEA 3 weeks
# Protocol: The level of expression of BKCa was examined using an immunoblot. Arterial pulmonary extracts were prepared from a pool of eight rats per sample and condition. Three separate samples were taken for each condition. The samples were ground in liquid N2, homogenized in RIPA buffer (1% Nonidet P-40/0.5% deoxycholate sodium/0.1% SDS/10 μg/ml aprotinin/100 μg/ml leupeptin/1 mM 4-(2-aminoethyl)benzenesulfonylfluoride in PBS) with a polytron (Bioblock Scientific), and then centrifuged. The extract was verified by Coomassie blue staining. Each sample was loaded at 10 μg in 7.5% resolving acrylamide gel and electrotransferred on to a nylon membrane. Immunoblot analyses used rabbit mAb against rat BKCa (Alomone Labs, Jerusalem, no. APC-021 at 1/500) and mouse monoclonal anti-actin (Santa Cruz Biotechnology, clone C-2 at 1/500). […] All experiments were repeated two or three times. Quantification of the data was performed using the SCION IMAGE program from the National Institutes of Health.
# [2] = system: chronic hypoxic-pulmonary artery hypertension (CH-PAH); test: Mean pulmonary arterial pressure (PAP) in chronic hypoxic (CH-PAH) rat model; type: in vivo
# Protocol: To study the mechanisms of PAH and its possible treatments, an animal model was utilized. The placement of rats in a hypobaric chamber for 7 to 21 days induced chronic hypoxia, resulting in CH-PAH, a useful model system for studying mammalian PAH.
# The rat model experiments were performed as follows. Adult male Wistar rats (220-240 g) were randomized into five groups. […] Intravascular administration was performed via the catheter inserted in the right jugular vein.
# BKCa [3] = molecular target: T1, BKCa (Rattus norvegicus, UniProt Q62976); test: IbTx-induced contraction of IPA rings from CH-DHEA rats; type: in vivo; details: for increase of tension induced by IbTx: rings from CH-DHEA rats compared with control and CH rats
# T1 construct: from tissue; host or cells: intrapulmonary artery rings of adult male Wistar rats
# Protocol: Statistical analyses for the experiments described herein were performed by using NCSS 5.0 software (NCSS, Kaysville, Utah). Values were expressed as mean±SEM. Contractions were expressed as a percentage of K^+-rich (80 mM) solution-induced contractions. Intergroup differences were assessed by a repeated-measures ANOVA or factorial ANOVA, as appropriate. Post hoc analysis used a Fisher multiple comparison test. For some comparisons, the Pearson product moment correlation coefficient between pairs of variables was used as indicated (ORIGIN 5.0, OriginLab, Northampton, Mass.). Regarding the number of experiments, (n) refers to the number of rings or cells and (N) to the number of animals. Differences were considered significant when P<0.05.
# (§1) The heart and lungs were removed and intrapulmonary arteries (IPAs) (150-300 μm of internal diameter) were then dissected. The adventitial and intimal layers were removed. For contraction experiments, rings (3 mm in length) were prepared.
# CH induces remodeling of the intrapulmonary artery (IPA) in the rat model of CH-PAH. To examine the changes in the IPA wall upon CH exposure, the following method was performed. Isometric contractions were measured in rings from IPAs that were mounted in vertical 5-ml organ baths of a computerized isolated organ bath system (IOX, EMKA Technologies, Paris), as described in Bonnet, S., et al. (2001, Am. J. Physiol. 281, L183-L192, which is incorporated by reference herein in its entirety). Baths were filled with Krebs-Henseleit solution (composition in mM: 118.4 NaCl/4.7 KCl/2.5 CaCl2/1.2 MgSO4/1.2 KH2PO4/25 NaHCO3/11.1 D-glucose, pH 7.4). The baths were maintained at 37° C. and bubbled with a 95% O2/5% CO2 gas mixture. […] A concentration increment was made once the maximal contractile effect of the preceding concentration had been recorded.
# [4] = cited from earlier work
# acute hypoxic challenge = test: Pressure response of the PA to acute hypoxic challenge; type: in vivo, rat; details: 3 weeks of hypoxia under DHEA treatment; response disappeared without DHEA
# Protocol: To determine the effect of the chronic hypoxia treatment-induced CH-PAH and to determine the effect of DHEA administration on PAP, the following PAP measurement method was used. Rats were anaesthetized with ketamine 50 mg/kg and xylazine 10 mg/kg by i.p. injection. […] The effect of DHEA on the systemic blood pressure was controlled by another catheter placed into the left carotid artery. Throughout all the experiments, heart rate and oxygen saturation were monitored. Acute hypoxic stress with fraction of inspired O2 of 10% were applied by administration of an air plus nitrogen gas mixture. The fraction of inspired O2 was monitored with an oxygen analyzer (Servomex, Crowborough, Great Britain), and the effects on the PAP were measured over a 10-15 minute period.
# PASMCs = test: Resting [Ca2+]i of PASMCs from orally DHEA-treated CH rats (indo-1); type: in vivo, rat; details: for effect on [Ca2+]i of PASMCs: CH rats
# Protocol: as §1
# As mentioned earlier, Ca^2+ is thought to play an important role in the response to chronic hypoxia. To measure the effects of DHEA on [Ca^2+]i of individual PASMCs, a [Ca^2+]i-sensitive fluorophore, indo-1 (Calbiochem, San Diego, Calif.), was employed. PASMCs were loaded with indo-1 by incubation in physiological salt solution (139.6 mM NaCl/6.2 mM KCl/1 mM MgCl2/12.1 mM glucose/10 mM Hepes) containing 1 μM indo-1 penta-acetoxymethyl ester (Indo-1 a.m.) for 25 minutes at room temperature. The recording system included a Nikon Diaphot inverted microscope fitted with epifluorescence. The studied cell was illuminated at 360 nm and counted simultaneously at 405 nm and 480 nm by two photomultipliers (P100, Nikon). […] [Ca^2+]i was estimated from the 405:480 ratio (Bonnet, S., et al. (2001) Am. J. Physiol. 281, L193-L201).
# T1 sequence (Q62976 whole entry): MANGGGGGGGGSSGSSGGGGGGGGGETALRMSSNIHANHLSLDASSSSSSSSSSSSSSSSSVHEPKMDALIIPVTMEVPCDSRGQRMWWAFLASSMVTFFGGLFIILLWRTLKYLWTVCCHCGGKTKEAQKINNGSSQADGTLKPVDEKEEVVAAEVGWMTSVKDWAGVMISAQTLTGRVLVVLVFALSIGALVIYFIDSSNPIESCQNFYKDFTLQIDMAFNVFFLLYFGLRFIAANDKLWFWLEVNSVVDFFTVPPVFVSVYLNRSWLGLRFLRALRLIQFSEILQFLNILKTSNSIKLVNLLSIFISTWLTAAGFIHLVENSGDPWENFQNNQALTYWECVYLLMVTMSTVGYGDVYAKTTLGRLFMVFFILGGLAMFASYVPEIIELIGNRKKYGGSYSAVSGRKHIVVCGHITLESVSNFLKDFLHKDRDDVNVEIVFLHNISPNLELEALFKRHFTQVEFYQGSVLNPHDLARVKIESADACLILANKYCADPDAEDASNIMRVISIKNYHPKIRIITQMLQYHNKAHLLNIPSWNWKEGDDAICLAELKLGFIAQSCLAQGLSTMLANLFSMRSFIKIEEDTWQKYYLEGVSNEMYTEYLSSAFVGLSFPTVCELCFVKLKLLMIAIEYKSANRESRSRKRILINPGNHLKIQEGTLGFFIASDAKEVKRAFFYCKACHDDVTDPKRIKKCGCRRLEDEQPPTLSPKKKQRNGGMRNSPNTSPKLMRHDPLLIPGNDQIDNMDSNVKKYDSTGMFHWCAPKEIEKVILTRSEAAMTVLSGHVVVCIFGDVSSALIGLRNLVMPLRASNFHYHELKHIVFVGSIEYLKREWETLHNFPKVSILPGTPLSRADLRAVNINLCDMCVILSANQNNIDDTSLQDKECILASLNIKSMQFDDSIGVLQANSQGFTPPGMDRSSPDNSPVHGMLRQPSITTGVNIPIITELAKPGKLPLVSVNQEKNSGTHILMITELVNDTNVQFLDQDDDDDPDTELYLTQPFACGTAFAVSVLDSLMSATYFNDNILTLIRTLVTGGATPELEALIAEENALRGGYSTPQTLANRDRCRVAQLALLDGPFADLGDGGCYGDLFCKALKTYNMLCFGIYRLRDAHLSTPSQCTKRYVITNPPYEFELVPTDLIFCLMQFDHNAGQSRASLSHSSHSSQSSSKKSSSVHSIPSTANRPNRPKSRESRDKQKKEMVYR
# T1 sequence (P97678 whole entry partner): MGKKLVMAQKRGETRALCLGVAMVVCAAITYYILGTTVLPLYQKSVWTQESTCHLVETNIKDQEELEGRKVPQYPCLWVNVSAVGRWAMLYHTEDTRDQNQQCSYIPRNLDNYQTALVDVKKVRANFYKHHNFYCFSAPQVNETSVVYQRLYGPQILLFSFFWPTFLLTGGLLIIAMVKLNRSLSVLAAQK
structure (smiles),measurement,setting,value
"C[C@]12CC[C@H](O)CC1=CC[C@@H]1[C@@H]2CC[C@]2(C)C(=O)CC[C@@H]12 [DHEA, dehydroepiandrosterone]",effect on CH-induced decrease of BKCa protein,BKCa [1],This decrease was prevented; also recorded: up-regulation
same,"immunoreactive signal of BKCa-subunit, CH-DHEA higher than CH",BKCa [1]; three separate comparisons,48.6±5.6%
same,effect of additional intravascular DHEA on PAP,[2]; 3-week CH-DHEA treated rats,did not further reduce PAP; also recorded: no effect
same,PAP,"[2]; 3-wk CH rats, ten minutes after acute intravascular DHEA 3 mg/kg, before 34.5±1.7",24.4±2.5 mmHg
same,dose dependence of PAP decrease,"[2]; CH rats, intravascular, successively increasing doses up to 3 mg/kg",dose-dependent manner
same,effect on PAP/PAH,"[2]; CH rats, single intravascular dose of DHEA 3 mg/kg",significant decrease in PAP; also recorded: significantly decreased PAH
same,PAP,"[2]; CH-DHEA rats: oral DHEA 30 mg/kg every alternate day during 3 wk hypoxia, untreated CH 34.5±1.7",21.7±1.1 mm Hg
same,decrease of PAP,"[2]; CH-PAH rats, intravascular 0.03 mg/kg",~10%
same,decrease in PAP,"[2]; CH-PAH rats, intravascular 0.3 mg/kg",~25%
same,decrease in PAP,"[2]; CH-PAH rats, intravascular 3.0 mg/kg",~45%
same,"PAP, CH-DHEA vs control rats",[2]; after 1 or 2 wk of hypoxia exposure with oral DHEA,no difference
same,effect of intravascular DHEA on PAP,[2]; control animals,no effect
same,effect on PAP/PAH (reversal),"[2]; hypertensive CH rats, 1-wk oral DHEA 30 mg/kg every alternate day",partially but significantly reversed; also recorded: significantly decreased PAH
same,effect on PAP (prevention),"[2]; oral DHEA for 3 weeks during chronic hypoxia, vs CH rats",significant preventive effect; also recorded: decreased; also recorded: almost entirely prevent
same,effect on PAP,"[2]; oral DHEA, normoxic rats",no effect
same,PAP,"[2]; rats 3 weeks in CH, oral DHEA during the last week, no DHEA 35.9±1.9",21±1.1 mm Hg
same,increase of tension induced by IbTx,BKCa [3]; 100 nM IbTx,52%
same,increase of tension induced by IbTx,BKCa [3]; 300 nM IbTx,55%
same,sensitivity/reactivity of IPA rings to IbTx,BKCa [3]; rings from CH-DHEA rats vs CH rats,increase the sensitivity for IbTx; also recorded: increase in the IbTx response; also recorded: higher reactivity to IbTx
same,toxicity in short- and long-term human studies,[4]; Baulieu et al. 2000,without major toxicity
same,safety of large amounts in human patients,[4]; Tummala & Svec 1999,safely administered
same,pressure response to an acute hypoxic challenge,acute hypoxic challenge,restored
same,resting [Ca2+]i value of PASMCs,"PASMCs; CH-DHEA rats (3 wk oral DHEA), CH 143±7, control 69.2±2.2",90.1 ± 3.2 nM
same,resting [Ca2+]i value of PASMCs,"PASMCs; DHEA from day 15 to day 21 of chronic hypoxia, untreated 143±7",105 ± 3 nM
same,effect on [Ca2+]i of PASMCs,PASMCs; oral DHEA for 1 week,significant decrease; also recorded: decrease in [Ca^2+]i
same,effect on [Ca2+]i of PASMCs,PASMCs; oral DHEA for 3 weeks,significant decrease; also recorded: decrease in [Ca^2+]i
